These results are taken from ChEMBL document CHEMBL1157513, “Enhanced anti-influenza A virus activity of (-)-epigallocatechin-3-O-gallate fatty acid monoester derivatives: effect of alkyl chain length” (Bioorg Med Chem Lett, 2008).

In data set [1] the test system is Influenza A virus. The data set is described as follows: Antiviral activity against Influenza A/PR8/34(H1N1)) in dog MDCK cells. It is filed as functional, organism-based. As to conditions: A/Puerto Rico/8/1934(H1N1).
Data set [2] relates to Influenza A virus. The data set is described as follows: Antiviral activity against Influenza (A/PR8/34(H1N1)). The class given is functional, organism-based. Particulars: A/Puerto Rico/8/1934(H1N1).
Data set [3] is described as follows: Cytotoxicity against MDCK cells by MTT assay. The class given is cell-based, Canis lupus familiaris. As to conditions: dog. For orientation: Formazan colour is commonly taken as a measure of viable cells.
The nature of data set [4]: Selectivity, ratio of CC50 for dog MDCK cells to EC50 for Influenza (A/PR8/34(H1N1)) in MDCK cells.
Data set [5] in a line: Selectivity, ratio of CC50 for dog MDCK cells to EC50 for Influenza (A/PR8/34(H1N1)).

Usually EC50 stands for the concentration giving half of the maximal effect. Higher therefore signals a need for much substance. For the molecule `CC(=O)Oc1cc(OC(C)=O)c2c(c1)O[C@H](c1cc(OC(C)=O)c(OC(C)=O)c(OC(C)=O)c1)[C@H](OC(=O)c1cc(OC(C)=O)c(OC(C)=O)c(OC(C)=O)c1)C2`, the values for the EC50 in the data set with Influenza A virus [1] and with Influenza A virus [2] were 77 µM and 8.49 µM, respectively.
Usually CC50 stands for the concentration at which the toxic effect on the cells reaches its halfway point. The low end stands for harm at low concentration, the high end for better tolerance by the cells. In the case of `O=C(O[C@@H]1Cc2c(O)cc(O)cc2O[C@@H]1c1cc(O)c(O)c(O)c1)c1cc(O)c(O)c(O)c1` [EPIGALOCATECHIN GALLATE], the midpoint of cytotoxicity in data set [3], the CC50, lay at 275 µM. Moreover, the EC50 amounted to 94.6 µM in the data set on Influenza A virus [1] and 0.391 µM with Influenza A virus [2]. For the same molecule, the “Ratio CC50/EC50” value was determined as 2.91 in data set [4] and 703 in data set [5].
